Data on 5 molecules can be found in patent US20230172933A1, “USE OF A COMPOUND OR COMPOSITION COMPRISING AN INHIBITOR OF NLRP1 INFLAMMASOME ACTIVATION FOR THE TREATMENT OF HUMAN AIRWAY INFLAMMATION” (Nanyang Technological University, priority 2020, published 2023).

Test [1] has as its system human NLRP1 inflammasome. Nature of the test: HRV14-3Cpro-induced ASC-GFP speck formation in 293T-ASC-GFP-NLRP1-FLAG reporter cells. In kind it is cell-based. The settings on record: 293T-ASC-GFP-NLRP1-FLAG cells transfected with HRV14-3Cpro; MLN4924 1 μM, MG132 2.5 μM, Bortezomib 0.5 μM, phenylalanine 1 mM; 24 hours.
The test system of test [2] is NLRP1. Nature of the test: NLRP1 self-oligomerization (BN-PAGE) and cleavage fragment (SDS-PAGE/Western blot) in 293T-NLRP1-FLAG cells transfected with HRV14-3Cpro. The test is classed as cell-based, human. The settings on record: for stabilization of the post-cleavage NLRP1 fragment (a.a. 131-1213): 293T-NLRP1-FLAG cells transfected with HRV14-3Cpro, Western blot; for HRV14-3Cpro-induced NLRP1 self-oligomerization: 293T-NLRP1-FLAG cells, BN-PAGE, drugs for 24 hours, MG132 2.5 μM.

Test [3] concerns endogenous NLRP1 inflammasome. Nature of the test: Endogenous NLRP1 inflammasome in doxycycline-induced Tet-ON HRV14-3Cpro N/TERT keratinocytes. In kind it is cell-based, human. The following applies: doxycycline 24 hours; for mature IL-1β secretion upon HRV14-3Cpro induction: Western blot, ELISA.
Test [4] has as its system NLRP1 inflammasome in HRV16-infected NHBEs. Description: HRV16-induced IL-1β and IL-18 secretion in NHBEs (ELISA). In kind it is cell-based, human. The settings on record: HRV16 MOI=5, 33° C., 48 hours, pre-treated: MLN4924 1 μM, Bortezomib 1 μM, MCC950 5 μM, Rupintrivir 10 nM. As for the experimental part: (§1) (A) Expression levels of NLRP1 vs. NLRP3 (RNAseq FKPM) in NHBEs. n=21, independent cultures of pooled NHBEs from healthy donors. (B) Expression of NLRP1 vs. NLRP3 in healthy human nasal biopsy. Puncta: positive staining by RNAscope. Nuclei staining: hematoxylin. (C) Overview of cytokine profiling of by HRV16-infected and Talabostat-treated NHBEs. (D) Cells were inoculated with HRV16 at MOI=5 and cultured at 33° C. for 48 hours. Luminex array was performed on conditioned media after removing cell debris. n=3 independent infections and treatment. Cytokines/chemokines that were induced at least 5 fold (p<0.05, Student's t test, lognormal values) are represented by square boxes. […] NHBEs were pretreated with MCC950 (5 μM) or Rupintrivir (10 nM) before HRV16 inoculation or Talabostat (2 μM) treatment. […] (G) Overview of apical HRV infection 3D human bronchial epithelial cultures. (H) Alcian blue (AB)/periodic acid-Schiff (PAS) staining of HRV16-infected (MOI=3) and Talabostat (2 μM)-treated 3D human bronchial epithelial cultures. (1) IL-18 level in apical or basal media 48 hours post-infection or Talabostat treatment. **P<0.01, ***P<0.001, ****P<0.0001 (Two-way ANOVA). n=3 independent infected/treated cultures. (J) Secretion of cleaved IL-1β and IL-18 and ASC oligomerization in HRV16-infected primary NHBEs. Cells were inoculated with HRV16 (MOI=5) or treated with Talabostat (2 μM) for 48 hours at 33° C.
(A) Endogenous NLRP1, ASC and caspase-1 are indispensable for HRV16-induced IL-18 secretion in NHBEs. Cas9-control, NLRP1, ASC and CASP1 KO NHBEs were infected with HRV16 as before. Conditioned media were harvested 48 hours post-infection. (B) NLRP1 is genetically required for HRV16-induced IL-18 cleavage and ASC oligomerization. Cas9 control, NLRP1 and ASC KO NHBEs were infected with HRV16 as before. Cleaved IL-18 are marked with arrows. (C) Mutating the NLRP1 cleavage site abrogates HRV16-triggered IL-18 secretion in NHBEs. NLRP1 KO NHBEs were rescued with lentiviral constructs expressing FLAG-tagged NLRP1^WT or NLRP1^Q130A, which carried silent mutations at the PAM sites. The rescued cells were infected with HRV16 or treated with Talabostat. Conditioned media was analyzed by IL-18 ELISA. **P<0.01, ***P<0.001, n=3 replicates from one of two independent infections. (D) Q130A abrogates NLRP1 cleavage, IL-18 maturation and ASC oligomerization in NHBEs. NLRP1 KO or NLRP1^WT- or NLRP1^Q130A-rescued cells were infected with HRV16 or treated with Talabostat. Cells were harvested 48 hours post infection. Arrow: NLRP1 cleavage product in lane 8 HRV16. *: Non-specific NLRP1 degradation product that occurs right below the a.a. 131-1213 cleavage fragment. See also FIG. 3E, 5E, 5D. (E) MLN4924 and Bortezomib blocks HRV16-induced IL-18 secretion. NHBEs were pre-treated with MLN4924 (1 μM) or Bortezomib (1 μM) before HRV16 infection or Talabostat treatment. IL-18 levels were measured with ELISA. ****, p<0.0001 (Two-way ANOVA), n=3 independent infections/treatment. (F) MLN4924 and Bortezomib blocks HRV16-induced IL-1β secretion. […] Lysates from HRV16-infected NHBEs in FIGS. 9E-F were analyzed by Western blot 48 hours post HRV16 inoculation.
The following antibodies were used in this study: c-Myc (Santa Cruz Biotechnology #sc-40), HA tag (Santa Cruz Biotechnology, #sc-805), GAPDH (Santa Cruz Biotechnology, #sc-47724), ASC (Adipogen, #AL-177), CASP1 (Santa Cruz Biotechnology, #sc-622), IL1B (R&D systems, #AF-201), FLAG (SigmaAldrich, #F3165), GFP (Abcam, #ab290), NLRP1 (R&D systems, #AF6788), IL18 (Abcam ab207324) and VP2 (QED Bioscience, #18758). HRV16-3Cpro was detected by rabbit serum, a kind gift from Dr. Ann Palmenberg and Dr. James Gern (University of Wisconsin). Cytokine and chemokine measurements were carried out with human IL-1B ELISA kit (BD, #557953), human IL-18 ELISA kit (MBL Bioscience, #7620) and Immune Monitoring 65-Plex Human ProcartaPlex™ Panel (ThermoFisher EPX650-10065-901). […]

For test [5], the system named is NLRP1 inflammasome in Talabostat-treated NHBEs. Nature of the test: Talabostat-induced IL-1β and IL-18 secretion in NHBEs (ELISA). The settings on record: Talabostat 2 μM, pre-treated: MLN4924 1 μM, MCC950 5 μM, Rupintrivir 10 nM. In kind it is cell-based, human. As for the experimental part: as §1
(A) Endogenous NLRP1, ASC and caspase-1 are indispensable for HRV16-induced IL-18 secretion in NHBEs. Cas9-control, NLRP1, ASC and CASP1 KO NHBEs were infected with HRV16 as before. Conditioned media were harvested 48 hours post-infection. (B) NLRP1 is genetically required for HRV16-induced IL-18 cleavage and ASC oligomerization. Cas9 control, NLRP1 and ASC KO NHBEs were infected with HRV16 as before. Cleaved IL-18 are marked with arrows. […] Conditioned media was analyzed by IL-18 ELISA. **P<0.01, ***P<0.001, n=3 replicates from one of two independent infections. […] IL-18 levels were measured with ELISA. ****, p<0.0001 (Two-way ANOVA), n=3 independent infections/treatment. […] Lysates from HRV16-infected NHBEs in FIGS. 9E-F were analyzed by Western blot 48 hours post HRV16 inoculation.
The following antibodies were used in this study: c-Myc (Santa Cruz Biotechnology #sc-40), HA tag (Santa Cruz Biotechnology, #sc-805), GAPDH (Santa Cruz Biotechnology, #sc-47724), ASC (Adipogen, #AL-177), CASP1 (Santa Cruz Biotechnology, #sc-622), IL1B (R&D systems, #AF-201), FLAG (SigmaAldrich, #F3165), GFP (Abcam, #ab290), NLRP1 (R&D systems, #AF6788), IL18 (Abcam ab207324) and VP2 (QED Bioscience, #18758). HRV16-3Cpro was detected by rabbit serum, a kind gift from Dr. Ann Palmenberg and Dr. James Gern (University of Wisconsin). […]

For test [6], the system named is NLRP1 cleavage by HRV16 3Cpro. Nature of the test: NLRP1 cleavage in HRV16-infected HeLa-Ohio-NLRP1-HA cells. The test is classed as cell-based, human. The settings on record: HRV16 MOI=1. As for the experimental part:
(A) HRV16 infection causes NLRP1 cleavage in HeLa-Ohio-NLRP1-HA cells. MOI=1. (B) Q130A abrogates HRV16-induced NLRP1 cleavage and ASC-GFP oligomerization. HeLa-Ohio-ASC-GFP-NLRP1WT or NLRP1^Q130A cells were infected with HRV16 at MOI=1 at 33° C. Cell pellets were harvested 48 hours post infection. (C) The effect of HRV16 infection on ASC-GFP speck formation in HeLa-Ohio-ASC-GFP cells expressing wild-type NLRP1 or NLRP1^Q130A. ***P<0.001 (Two-way ANOVA). n=3 replicates from one of two independent infections, >100 cells per condition. (D) Representative images of ASC-GFP specks in HeLa-Ohio-ASC-GFP cells expressing wild-type NLRP1 or NLRP1^Q130A. Arrows: ASC-GFP specks. Note that in this cell line the ASC-GFP specks appear less compact, even in Talabostat-treated positive control cells. […]
The effect of live HRV infection in disease-relevant human epithelial cell types was then examined. In HeLa-Ohio cells overexpressing NLRP1-HA, robust HRV16 viral replication was achieved 16 hours post inoculation (MOI=1) as detected by the accumulation of the viral capsid protein VP2 (FIG. 8A, lanes 4, 5, 10 and 11). […] Using HeLa-Ohio cells that additionally expressed ASC-GFP, we next tested whether HRV16 infection could lead to NLRP1 inflammasome complex assembly. […]

Structures are written as SMILES. “Also recorded” adds a separate entry of the source. Peptide text beside a SMILES is read from it. * marks the point of attachment. Cbz = O=C(OCc1ccccc1)*

On to `CC(C)C[C@H](NC(=O)[C@H](Cc1ccccc1)NC(=O)c1cnccn1)B(O)O` [Bortezomib, [(1R)-3-methyl-1-[[(2S)-3-phenyl-2-(pyrazine-2-carbonylamino)propanoyl]amino]butyl]boronic acid], for which the “HRV14-3Cpro-induced ASC-GFP speck formation” value in test [1] is on record as “blocked”. The “stabilization of the post-cleavage NLRP1 fragment (a.a. 131-1213)” value in test [2] is “to similar degrees”. Further, in test [3], the “ASC oligomerization upon HRV14-3Cpro induction” value was “completely blocked” and the “mature IL-1β secretion upon HRV14-3Cpro induction” value is recorded as “completely blocked”. For the same molecule, in test [4], the “HRV16-induced IL-1β secretion” value was “blocks” and the “HRV16-induced IL-18 secretion” value is on record as “blocks”. In addition, in test [4] (listed as bortezomib), the “HRV16-induced IL-1β secretion” value is recorded as “completely blocked” and the “HRV16-induced IL-18 secretion” value was “completely blocked”.
For the molecule `CC(C)(O)c1coc(S(=O)(=O)NC(=O)Nc2c3c(cc4c2CCC4)CCC3)c1` [MCC950], in test [4], the “HRV16-induced IL-1β secretion” value was “neither IL-1β nor IL-18 secretion was affected; also recorded: did not affect” and the “HRV16-induced IL-18 secretion” value is “neither IL-1β nor IL-18 secretion was affected”. Further, in test [5], the “Talabostat-induced IL-1β secretion” value is recorded as “neither IL-1β nor IL-18 secretion was affected” and the “Talabostat-induced IL-18 secretion” value is “neither IL-1β nor IL-18 secretion was affected”.
As to `CC(C)C[C@@H](C=O)NC(=O)[C@H](CC(C)C)NC(=O)[C@H](CC(C)C)NC(=O)OCc1ccccc1` [MG132, benzyl N-[(2S)-4-methyl-1-[[(2S)-4-methyl-1-[[(2S)-4-methyl-1-oxopentan-2-yl]amino]-1-oxopentan-2-yl]amino]-1-oxopentan-2-yl]carbamate] (Cbz-Leu-Leu-Leu-aldehyde), the “HRV14-3Cpro-induced ASC-GFP speck formation” value in test [1] is reported as “significantly blocked”. Besides, in test [2], the “stabilization of the post-cleavage NLRP1 fragment (a.a. 131-1213)” value was “to similar degrees” and the “HRV14-3Cpro-induced NLRP1 self-oligomerization” value was “significantly blocked”. In test [3], the “ASC oligomerization upon HRV14-3Cpro induction” value was “completely abrogated” and the “mature IL-1β secretion upon HRV14-3Cpro induction” value is on record as “completely abrogated”.
With `CCOC(=O)/C=C/[C@H](C[C@@H]1CCNC1=O)NC(=O)[C@@H](CC(=O)[C@@H](NC(=O)c1cc(C)on1)C(C)C)Cc1ccc(F)cc1` [Rupintrivir], the NLRP1 cleavage result in test [6] is reported as “completely abrogated”. In test [4], the “HRV16-induced IL-1β secretion” value is “completely abrogated” and the “HRV16-induced IL-18 secretion” value is given as “completely abrogated”.
With `N[C@@H](Cc1ccccc1)C(=O)O` [phenylalanine], in test [1], the “HRV14-3Cpro-induced ASC-GFP speck formation” value is listed as “had no effect”. The “HRV14-3Cpro-induced NLRP1 self-oligomerization” value in test [2] is on record as “had no effect”.
